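1) Cells in 96-well plates. 2) Compound, 48 h, 5 concentrations. 3) Linear interpolation between surrounding doses. 4) Unreached endpoint = highest concentration. TGI: total growth inhibition.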
Columns and labels:
Assay in all cases: inhibition of tumour cell growth, NCI panel, 48 h
[1] = system: T-47D breast
[2] = system: A498 renal
[3] = system: SN12C renal
[4] = system: CCRF-CEM leukemia
[5] = system: IGROV1 ovarian
[6] = system: SF-268 CNS
[7] = system: HCC-2998 colon
[8] = system: HS 578T breast
[9] = system: LOX IMVI melanoma
[10] = system: UACC-257 melanoma
[11] = system: SK-MEL-2 melanoma
[12] = system: TK-10 renal
[13] = system: KM12 colon
[14] = system: MALME-3M melanoma
[15] = system: HCT-116 colon
[16] = system: CAKI-1 renal
[17] = system: M14 melanoma
[18] = system: HOP-92 NSCLC
[19] = system: UACC-62 melanoma
[20] = system: DU-145 prostate
[21] = system: RXF 393 renal
[22] = system: MDA-N
[23] = system: NCI-H226 lung
[24] = system: OVCAR-3 ovarian
[25] = system: SK-MEL-5 melanoma
[26] = system: HL-60(TB) leukemia
[27] = system: OVCAR-5 ovarian
[28] = system: SNB-75 CNS
[29] = system: OVCAR-8 ovarian
[30] = system: COLO 205 colon
[31] = system: HOP-62 NSCLC
[32] = system: NCI-H522 lung
[33] = system: SK-OV-3 ovarian
[34] = system: A549 NSCLC
[35] = system: NCI-H23 lung
[36] = system: OVCAR-4 ovarian
[37] = system: SF-539 CNS
[38] = system: UO-31 renal
[39] = system: RPMI-8226 leukemia
[40] = system: EKVX NSCLC
[41] = system: ACHN renal
[42] = system: MDA-MB-435
[43] = system: SW-620 colon
[44] = system: SF-295 CNS
[45] = system: PC-3 prostate
[46] = system: MCF7 breast
[47] = system: SNB-19 CNS
[48] = system: MOLT-4 leukemia
[49] = system: SR leukemia
[50] = system: SK-MEL-28 melanoma
[51] = system: U251 CNS
[52] = system: NCI/ADR-RES ovarian
[53] = system: BT-549 breast
[54] = system: HCT-15 colon
[55] = system: 786-0 renal
[56] = system: K-562 leukemia
[57] = system: NCI-H460 lung
[58] = system: HT29 colon
[59] = system: MDA-MB-231 breast

In the case of `Cc1cn(C2CC(O)C(Cn3nncc3Cn3cnc4c(N)ncnc43)O2)c(=O)[nH]c1=O` (configuration not stated), the TGI [1] is reported as greater than 100 µM, the TGI [2] is reported as greater than 100 µM and the TGI [3] is reported as greater than 100 µM. It also gave a TGI [4] greater than 100 µM, a TGI [5] greater than 100 µM and a TGI [6] greater than 100 µM. It also gave a TGI [7] greater than 100 µM, a TGI [8] greater than 100 µM and a TGI [9] greater than 100 µM. The TGI [10] was greater than 100 µM, the TGI [11] was greater than 100 µM and the TGI [12] was greater than 100 µM. It also gave a TGI [13] greater than 100 µM, a TGI [14] greater than 100 µM and a TGI [15] greater than 100 µM. It also gave a TGI [16] greater than 100 µM, a TGI [17] greater than 100 µM and a TGI [18] greater than 100 µM. The TGI [19] was greater than 100 µM, the TGI [20] was greater than 100 µM and the TGI [21] was greater than 100 µM. It also gave a TGI [22] greater than 100 µM, a TGI [23] greater than 100 µM and a TGI [24] greater than 100 µM. It also gave a TGI [25] greater than 100 µM, a TGI [26] greater than 100 µM and a TGI [27] greater than 100 µM. It also gave a TGI [28] greater than 100 µM, a TGI [29] greater than 100 µM and a TGI [30] greater than 100 µM. It also gave a TGI [31] greater than 100 µM, a TGI [32] greater than 100 µM and a TGI [33] greater than 100 µM. It also gave a TGI [34] greater than 100 µM, a TGI [35] greater than 100 µM and a TGI [36] greater than 100 µM. The TGI [37] was greater than 100 µM, the TGI [38] was greater than 100 µM and the TGI [39] was greater than 100 µM. It also gave a TGI [40] greater than 100 µM, a TGI [41] greater than 100 µM and a TGI [42] greater than 100 µM. The TGI [43] was greater than 100 µM, the TGI [44] was greater than 100 µM and the TGI [45] was greater than 100 µM. It also gave a TGI [46] greater than 100 µM, a TGI [47] greater than 100 µM and a TGI [48] greater than 100 µM. The TGI [49] was greater than 100 µM, the TGI [50] was greater than 100 µM and the TGI [51] was greater than 100 µM. For the same molecule, the TGI [52] was greater than 100 µM, the TGI [53] was greater than 100 µM and the TGI [54] was greater than 100 µM. The TGI [55] was greater than 100 µM.

`CCC1(c2ccc(OC)c(OC)c2)CCN(S(=O)(=O)c2ccc(C)cc2)C1` (configuration not stated) gave a TGI [1] greater than 100 µM, a TGI [3] greater than 100 µM and a TGI [56] greater than 10 µM. For the same molecule, the TGI [4] was greater than 100 µM, the TGI [5] was greater than 100 µM and the TGI [6] was greater than 100 µM. It also gave a TGI [7] greater than 100 µM, a TGI [9] greater than 100 µM and a TGI [10] greater than 100 µM. For the same molecule, the TGI [11] was greater than 100 µM, the TGI [12] was greater than 100 µM and the TGI [13] was greater than 100 µM. It also gave a TGI [15] greater than 100 µM, a TGI [16] greater than 100 µM and a TGI [17] greater than 100 µM. It also gave a TGI [19] greater than 100 µM, a TGI [20] greater than 100 µM and a TGI [21] greater than 100 µM. The TGI [22] was greater than 100 µM, the TGI [23] was greater than 100 µM and the TGI [24] was greater than 100 µM. It also gave a TGI [57] greater than 100 µM, a TGI [58] greater than 100 µM and a TGI [25] greater than 100 µM. For the same molecule, the TGI [27] was greater than 100 µM, the TGI [28] was greater than 100 µM and the TGI [30] was greater than 100 µM. For the same molecule, the TGI [31] was greater than 100 µM, the TGI [32] was greater than 100 µM and the TGI [33] was greater than 100 µM. For the same molecule, the TGI [34] was greater than 100 µM, the TGI [59] was greater than 100 µM and the TGI [35] was greater than 100 µM. For the same molecule, the TGI [36] was greater than 100 µM, the TGI [37] was greater than 100 µM and the TGI [38] was greater than 100 µM. The TGI [40] was greater than 100 µM, the TGI [41] was greater than 100 µM and the TGI [42] was greater than 100 µM. It also gave a TGI [43] greater than 100 µM, a TGI [44] greater than 100 µM and a TGI [45] greater than 100 µM. The TGI [46] was greater than 100 µM, the TGI [47] was greater than 100 µM and the TGI [48] was 64.1 µM. It also gave a TGI [49] greater than 10 µM, a TGI [50] greater than 10 µM and a TGI [51] greater than 100 µM. The TGI [52] was greater than 100 µM, the TGI [53] was greater than 100 µM and the TGI [54] was greater than 100 µM. The TGI [55] was greater than 100 µM.
